# “Also recorded” adds a separate entry of the source.
# Assays:
# THLE-5B cells [1] = experiment: Anchorage-independent transformation (over-agar) assay in THLE-5B cells; format: cell-based, human; conditions: 10 ng/ml EGF, inhibitor 0.01 μM to 1.0 μM, colonies counted after 14 days
# Method: Cells and Culture Conditions. The normal human liver epithelial cell line, THLE-5B, was kindly provided by Curtis Harris (NCI, National Institutes of Health, Bethesda, Md.). THLE-5B cells were propagated in DMEM/F-12 (1:1; Invitrogen, Carlsbad, Calif.) with 10% fetal bovine serum (MediaTech CellGro, Herndon, Va.), that was supplemented with 100 units/ml penicillin, […] streptomycin (both from Invitrogen), 10 μg/ml insulin, 10 μg/ml transferrin and 10 ng/ml selenium (ITS; Lonza, Walkersville, Md.). Primary human hepatocytes were isolated as described before and cultured in HMM media (Lonza). Cells were maintained at 37° C. in a humidified incubator with 5% CO2 in air.
# Chemicals. Stock solutions of AG1478 (Invitrogen), erlotinib (Tarceva™; Genentech, South San Francisco, Calif.) and gefitinib (Iressa™; AstraZeneca, Wilmington, Del.) were prepared in DMSO and stored at −20° C. EGF (Sigma, St. Louis, Mo.) stock solution was prepared in 10 mM acetic acid and diluted in PBS.
# Anchorage-Independent Transformation Assay. Because cells suspended in soft agar cannot be easily recovered, the inventors used the previously described over-agar assay which allows for the analysis of molecular events associated with tumor promoter-induced cell transformation under anchorage-independent conditions. Briefly, 1×10^4 THLE-5B cells or isolated human hepatocytes were plated onto 0.5% BME agar containing the indicated concentrations of EGF and inhibitors. The plates were cultured for 14 days, after which colonies of transformed cells were counted using a microscope. The results represent one experiment and are presented as the mean±standard deviation of colony counts made by three separate investigators. The experiments were repeated twice to ensure qualitatively similar results.
# THLE-5B cells [2] = experiment: Cell growth (MTT) assay in THLE-5B cells; format: cell-based, human; conditions: inhibitor 0.01-1 μM; 72 h
# Method: Cell Growth Assay. Briefly, THLE-5B cells were plated in triplicate at a density of 4×10^4 cells/ml in a 24-well plate. After 24 h, cells were washed once with PBS and medium containing inhibitors at the indicated concentrations or vehicle control was added. After 72 h, the effects of each inhibitor on growth of the cells was measured by colorimetric 3-(4,5-dimethylthiazol-2-yl)-2,5-diphenyltetrazolium bromide (MTT; Sigma) assay. The absorbance at 562 nm was measured using a spectrophotometric plate reader (Emax; Molecular Devices) and the experiment was repeated twice to ensure qualitatively similar results for each inhibitor.
# HCC nodules = conditions: rat, DEN-induced cirrhosis; treatment during weeks 12-18; cited from earlier work
SMILES,EGF mediated anchorage-independent transformation of THLE-5B cells (THLE-5B cells [1]),cytotoxicity to THLE-5B cells as determined by MTT (THLE-5B cells [2]),EGF mediated anchorage-independent transformation of THLE-5B cells (THLE-5B cells [1]; listed as Gefitnib),formation of HCC nodules (HCC nodules)
C#Cc1cccc(Nc2ncnc3cc(OCCOC)c(OCCOC)cc23)c1 [Erlotinib],prevents EGF mediated anchorage-independent transformation; also recorded: inhibited,not cytotoxic,,
COc1cc2ncnc(Nc3ccc(F)c(Cl)c3)c2cc1OCCCN1CCOCC1 [Gefitinib],inhibited,not cytotoxic,prevents EGF mediated anchorage-independent transformation,significantly reduced the formation of HCC nodules; also recorded: significantly reduced the formation of hepatocellular carcinoma nodules
"COc1cc2ncnc(Nc3cccc(Cl)c3)c2cc1OC [AG1478, 4-(3-Chloroanillino)-6,7-dimethoxyquinazoline]",prevents EGF mediated anchorage-independent transformation; also recorded: inhibited,not cytotoxic,,
